Test results from patent publication US10711005B2, “Compound I and compound II as well as preparation methods therefor and application thereof” (SHENZHEN UNIVERSITY, priority 2015, dated 2020).

Key:
[1] = tested on: lymphocyte; details: cited from earlier work
[2] = tested on: dendritic cells derived from bone marrow cells; details: in vitro; cited from earlier work
[3] = tested on: spleen lymphocytes; assay: ELISA detection of IFN-γ and IL-12 after stimulation of spleen lymphocytes in vitro by T7-EA; assay type: cell-based, mice; details: 24 hours, FIGS. 3A-3B
Protocol: The mice are broken the neck to death and soaked in 75% ethanol for 5 minutes, and then placed on the super-clean bench for taking the spleen out with a sterile operation. The spleen is grinded in the 35 mm culture dish containing 4-5 ml murine lymphocyte separating medium. Then obtained cell suspension is transferred to the 15 ml centrifuge tube in which 500 μl RPMI-1640 is gently added along the tube wall for enclosure. After that the centrifuge tube is centrifuged for 30 minutes at 800 G. Then the centrifuged layer containing the lymphocytes is further centrifuged at 250 G for 10 minutes in a centrifuge tube containing 10 ml culture medium. The supernatant is discarded and the cell pellet is dissipated by the culture medium and counted. The spleen leukomonocytes are deposited on the 24-well plate with a cell density of 1×10^6/ml. T7-EA with corresponding concentrations (0, 0.001, 0.01, 0.1, 1, 2, 4, 8, 16, 20, 24 μmol/L) is added into each well and incubated for 24 hours in the cell culture box of 5% CO2 and saturated humidity at 37° C. The supernatant is collected on the second day and tested according to the operation manual of the ELISA kit. The supernatants are collected after stimulating the spleen lymphocytes with T7-EA of different concentrations for 24 hours, and the ELISA test results are shown in FIGS. 3A-3B.

[4] = tested on: protein of mammary cancer 4T1 cells; assay: Whole-cell antibody detection (serum IgG ELISA); assay type: in vivo, mice; details: blood collected sixth day after each of 4 immunotherapies, FIG. 12
Protocol: The protein of mammary cancer 4T1 cells is extracted and the concentration of which is also measured in accordance with the operation manual of the BCA protein quantitative kits. The extracted protein is used as the envelope antigen. The venous blood of mice is collected sixth days after each immunotherapy, and its supernatant is collected for 4 times. The serum antibody is measured in accordance with the operation manual of the ELISA kit.

[5] = tested on: spleen lymphocytes; assay: ELISA detection of cytokines IFN-γ and IL-12 generated by spleen lymphocytes after stimulation of T7-EA; assay type: cell-based, mice; details: 24 hours
Protocol: (§1) The mice are broken the neck to death and soaked in 75% ethanol, and then placed on the super-clean bench for taking the spleen out with a sterile operation. The spleen is grinded in the 35 mm culture dish containing 4-5 ml Mouse1×lymphocyte separating medium. Then separating medium suspended with spleen cells is transferred to the 15 ml centrifuge tube and enclosed with 500 μl RPMI-1640, After that the centrifuge tube is centrifuged at room temperature for 30 minutes at 800 G. Then the middle buffy coat is placed into a centrifuge tube containing 10 ml culture medium for being overthrown and washed. After that, the centrifuge tube is further centrifuged at 250 G for 10 minutes at room temperature. The supernatant is discarded and the cell pellet is dissipated by the culture medium and counted. The spleen leukomonocytes are deposited on the 24-well plate with a final cell density of 1×10^6/ml. T7-EA with corresponding concentrations (0, 0.01, 0.1, 0.5, 1, 2, 4, 8, 16, 20, 24 μmol/L) is added and incubated for 24 hours in the cell culture box. The supernatant is collected on the second day and tested according to the operation manual of the ELISA kit. […] When the T7-EA has a concentration ≤4 μmol/L, better effects can be obtained. Accordingly, 4 μmol/L is the effective concentration of the T7-EA.

[6] = tested on: murine melanoma cell line B16f10; assay: Anti tumor experiment of T7-EA in vivo (melanoma-bearing mice); set-up: species or system BALB/c mice; details: T7-EA 10 mg/Kg once every three days for 2 weeks; vs control group, T7 group and EA group (P<0.01), FIG. 5
Source text: The used materials comprise animal and cell strain BALB/c mice, female, 5-6 weeks old, provided by the Guangdong Medical Laboratory Animal Center; and murine melanoma cell line B16f10 purchased from Shanghai ATCC Cell Bank.
24 4-5 weeks old female BALB/c mice are loaded with 5×10^5 tumor cells/each one after 1 weeks of quarantine at SPF level in an animal room. The mice bearing tumors are randomly divided into 75% ethanol control group, T7 group, EA group and T7-EA group, when the diameter of the tumor reaches 5 mm. The corresponding drugs are given to each group with a dosage of T7-EA 10 mg/Kg, T7 5 mg/kg, EA 12.5 mg/kg once every three days for 2 weeks. During the treatment, the tumor growth is observed by measuring the tumor size every three days. The tumor surface area is calculated according to the following formula: S=tab (wherein a represents the long diameter, while b represents the short diameter). The 24 mice are loaded with 5×10^5 tumor cells/each one after 7 days of quarantine at SPF level in an animal room. The mice bearing tumors are randomly divided into 75% ethanol control group, T7 group, EA group and T7-EA group, when the diameter of the tumor reaches 5 mm. The corresponding drugs are given to each group once every three days for 2 weeks, and the tumor size is measured every three days.

[7] = tested on: spleen lymphocytes; assay: ELISA detection of cytokines IFN-γ and IL-12 generated by spleen lymphocytes after stimulation of T7-EA-ROR1; assay type: cell-based, murine; details: final T7-EA concentration 4 μmol/L, T7-EA:ROR1 molar ratio 1:1, FIGS. 10A-10B
Protocol: as §1, with “T7-EA. […]” for “T7-EA.”

[8] = tested on: B16f10 melanoma cells; assay: CTL experiment (LDH method), spleen lymphocytes of treated mice against B16f10; assay type: in vivo; details: effector:target 50:1, 4 hours, after two weeks of administration; vs control, T7 and EA groups (P<0.05), FIG. 6
Protocol: The activity of cytotoxic T lymphocyte (CTL) is determined by the method of Lactic dehydrogenase (LDH) with CytoTox96Promega kits. The mice in the experimental group are broken the neck to death. The spleen lymphocytes are taken as the effector cells while the B16f10 melanoma cells are used as the target cells. The effector cells and the target cells are mixed up with a ratio of 50:1 and cultured for 4 hours. The specific operation steps can be implemented according to the operation manual, while the kill rate can calculated as follows: the killing rate (%)=(OD value of the experimental group−pontaneous OD value of the effector cells−pontaneous OD value of the target cells)/(Maximum OD value of the target cells−pontaneous OD value of the target cells)×100%. The mice in the experimental group are broken the neck to death after two weeks of administration. The spleen lymphocytes are taken as the effector cells while the B16f10 melanoma cells are used as the target cells. The effector cells and the target cells are spread onto 96-well U-shape plate according to a ratio of 50:1 and cultured together for 4 hours.

[9] = tested on: spleen lymphocytes; assay: Lymphocyte proliferation experiment (CCK8); assay type: cell-based, mice; details: 24 hours; for proliferation of the lymphocytes: CCK8, FIG. 4
Protocol: The activation and proliferation abilities of T7-EA on the lymphocytes are detected. The mice are broken the neck to death and soaked in 75% ethanol, and then placed on the super-clean bench for taking the spleen out with a sterile operation. The spleen is grinded in the 35 mm culture dish containing 4-5 ml murine lymphocyte separating medium. Then obtained cell suspension is transferred to the 15 ml centrifuge tube in which 500 μl RPMI-1640 is gently added along the tube wall for enclosure. After that the centrifuge tube is centrifuged for 30 minutes at 800 G. Then the centrifuged layer containing the lymphocytes is further centrifuged at 250 G for 10 minutes in a centrifuge tube containing 10 ml culture medium. The supernatant is discarded and the cell pellet is dissipated by the culture medium and counted. The spleen leukomonocytes are deposited on the 96-well plate with a cell density of 2×10^5/each well. T7-EA with corresponding concentrations (0, 0.001, 0.01, 0.1, 1, 2, 4, 8, 16, 20, 24 μmol/L) is added onto the 96-well plate and incubated for 24 hours in the cell culture box of 5% CO2 and saturated humidity at 37° C. The effect of the T7-EA on the proliferation of the lymphocytes is detected by CCK8 after the 24 hours incubation according to the operation manual of the CCK8 kits, and the results are shown in FIG. 4. […] When the T7-EA has a concentration of 4 μmol/L, the relative proliferation rate is about 50%.

[10] = higher concentration (>4 μmol/L)
[11] = lower concentration (≤4 μmol/L)

COCCOc1nc(N)c2nc(O)n(Cc3ccc(CN)cc3)c2n1 [T7]
production of inflammatory mediators IFN-γ and IL-12 [1]: inflammatory mediators, such as IFN-γ and IL-12 can also be produced rapidly
production of inflammatory mediators TNF-a and IL-12 [2]: inflammatory mediators, such as TNF-a and IL-12 can be produced rapidly

C=C(CC)C(=O)c1ccc(OCC(=O)NCc2ccc(Cn3c(O)nc4c(N)nc(OCCOC)nc43)cc2)c(Cl)c1Cl [T7-EA]
ability for activating lymphocytes (generation of IFN-γ and IL-12) [3, 10]: decreased ability for activating lymphocytes
ability for activating lymphocytes (generation of IFN-γ and IL-12) [3, 11]: stronger ability for activating lymphocytes
level of IgG antibody in the mice sera [4]: increases gradually with the increase of immunization times
generation of cytokines IFN-γ and IL-12 by lymphocytes ([5]; 0-24 μmol/L, FIGS. 8A-8B): can activate the lymphocytes and induce the lymphocytes to generate cytokines IFN-γ and IL-12
effective concentration of the T7-EA ([5]; IFN-γ and IL-12 induction): 4 µmol/L
growth of the tumor (tumor surface area) [6]: significantly inhibited the growth of the tumor
generation of cytokines IFN-γ and IL-12 by spleen lymphocytes [7]: can induce the spleen lymphocytes to generate cytokines IFN-γ and IL-12
immune killing effect (CTL killing rate) [8]: stronger immune killing effect on melanoma
relative proliferation rate ([9]; concentration of 4 μmol/L): about 50%
lethal effect on the lymphocytes ([9]; higher concentration (>4 μmol/L), CCK8): no lethal effect on the lymphocytes
proliferation of the lymphocytes [9, 10]: no effect on the proliferation of the lymphocytes
proliferation of the lymphocytes [9, 11]: can promote the proliferation of the lymphocytes
